Data set [1] in a line: Mouse weight in the skin abscess model. On the set-up: species or system CD-1 mice. The following applies: in vivo. As to the method: The backs of six-week-old female CD-1 mice under anaesthesia were shaved and injured with a superficial linear skin abrasion made with a needle. An aliquot of A. baumannii ATCC 19606 (2 × 10^6 CFU ml^−1; 20 μl) previously grown in LB medium until 0.5 optical density ml^−1 (optical value at 600 nm) and then washed twice with sterile PBS (pH 7.4, 9,391 g for 3 min) was added to the scratched area. Peptides diluted in sterile water at MIC value were administered to the wound area 1 h after the infection. Two and four days after infection animals were euthanized, and the scarified skin was excised, homogenized using a bead beater (25 Hz for 20 min), tenfold serially diluted, and plated on McConkey agar plates for CFU quantification. The experiments were performed using six mice per group. Mice were housed in groups of three and maintained under a 12-h light/dark cycle at 22 °C with humidity controlled at 50%. The skin abscess infection mouse model was revised and approved by University Laboratory Animal Resources from the University of Pennsylvania (protocol 806763).
Figure S6. Cytotoxicity and anti-infective activity of designed peptides. (a) Cytotoxic effects of increasing concentrations ([…]) of each peptide on human embryonic kidney (HEK293T) cells after 24 h of treatment. Mouse weight was monitored throughout the duration of the (b) skin abscess model (4 days total) and the (e) deep thigh infection model (8 days total) to assess potential toxic effects of both the bacterial load and the designed peptides. (c) Schematic of the neutropenic thigh infection mouse model, where the designed peptides were administered intraperitoneally. Anti-infective activity against A. baumannii ATCC 19606 was evaluated 4 days after intraperitoneal peptide administration (n = 6). (d) Four days after intraperitoneal injection, NE2 at its MIC (32 µmol L-1) inhibited by […]
Statistical significance in panel d was determined using one-way ANOVA followed by Dunnett’s test; P values are shown in the graphs. […]

Data set [2] relates to A. baumannii ATCC 19606. The class given is cell-based, Acinetobacter baumannii. The following applies: ATCC 19606, 24 h. As to the method: (§1) Fig. 2 Antimicrobial activity and secondary structure of computationally designed peptides. a, Structure prediction of the synthesized peptides. b, Heatmap of the antimicrobial activities of the peptides against 11 clinically relevant pathogens, including four strains resistant to conventional antibiotics. Briefly, 10^6 bacterial cells and serially diluted peptides (1-64 μmol l^−1) were incubated at 37 °C. One day after treatment, the optical density at 600 nm was measured in a microplate reader to evaluate bacterial growth in the presence of the peptides. MIC values in the heatmap are the mode of the replicates in each condition. c–f, Ternary plots showing the percentage of secondary structure for each peptide (at 50 μmol l^−1) in four different solvents: water (c), 60% TFE in water (d), 10 mmol l^−1 SDS in water (e) and 50% methanol (MeOH) in water (f). Secondary structure fractions were calculated using the BeStSel server. […] An error of one column cannot be fully excluded. / Panel b: AT1, AT2, AT3 and all blank cells print no number and are left out.
In this study, we used the following pathogenic bacterial strains: A. baumannii ATCC 19606, E. coli AIC221 (E. coli MG1655 phnE_2::FRT (control strain for AIC222)) and E. coli AIC222 (E. coli MG1655 pmrA53 phnE_2::FRT (polymyxin resistant; colistin-resistant strain)), Klebsiella pneumoniae ATCC 13883, Pseudomonas aeruginosa PAO1, P. aeruginosa PA14 and Staphylococcus aureus ATCC 12600. All pathogens were grown in Luria–Bertani (LB) broth and on LB agar. Pseudomonas isolation (P. aeruginosa strains) agar plates were exclusively used in the case of Pseudomonas species. In all the experiments, bacteria were inoculated from one isolated colony and grown overnight (16 h) in liquid medium at 37 °C. On the following day, inocula were diluted 1:100 in fresh media and incubated at 37 °C to mid-logarithmic phase.
(§2) Broth microdilution assays[64] were conducted to establish the MIC for each peptide. Peptides were added to untreated polystyrene 96-well microtiter plates and serially diluted twofold in sterile water, ranging from 1 to 64 μmol l^−1. A bacterial inoculum at a concentration of 10^6 CFU ml^−1 in LB medium was then mixed in a 1:1 ratio with the peptide solution. […] Each assay was performed in three independent replicates.

The test system of data set [3] is E. faecalis ATCC 700802 - VRE. The class given is cell-based, Enterococcus faecalis. The conditions noted are these: ATCC 700802, 24 h. As to the method:
as §1, §2

Data set [4] concerns E. faecium ATCC 700221 - VRE. The class given is cell-based. The conditions noted are these: ATCC 700221, 24 h. As to the method: as §1, §2
Data set [5] deals with A. baumannii ATCC 19606. Kind of data set: Cytoplasmic-membrane depolarization, DiSC3-5. The class given is cell-based, Acinetobacter baumannii. The conditions noted are these: DiSC3-5 fluorescence, peptides at their MIC, 60 min. As to the method:
Fig. 3 Mechanism of action and cytotoxic activity of designed peptides. a, To assess whether the peptides act on bacterial membranes, all active peptides against A. baumannii American Type Culture Collection (ATCC) 19606 were subjected to outer-membrane permeabilization, and peptides active against A. baumannii ATCC 19606 and vancomycin-resistant E. faecalis ATCC 700802 were tested in cytoplasmic-membrane depolarization assays. b, The fluorescent probe NPN was used to assess membrane permeabilization induced by the tested peptides. c,d, The fluorescent probe DiSC3-5 was used to evaluate membrane depolarization caused by the designed peptides in A. baumannii ATCC 19606 (c) and vancomycin-resistant E. faecalis ATCC 700802 (d). […] All experiments were performed in three independent replicates. […]
The cytoplasmic-membrane depolarization assay was performed using the membrane-potential-sensitive dye DiSC3-5. […] Membrane depolarization was then followed by reading changes in the fluorescence (λex = 622 nm, λem = 670 nm) over time for 60 min. The relative fluorescence was calculated using the untreated control (buffer + bacteria + fluorescent dye) as baseline and the following equation was applied to reflect the percentage difference between the baselines and the sample: percentagedifference=100×(fluorescencesample−fluorescenceuntreatedcontrol)/fluorescenceuntreatedcontrol. […]

The subject of data set [6] is 11 clinically relevant strains, including the ESKAPEE pathogens. Kind of data set: MIC against the whole strain panel. The class given is cell-based. The conditions noted are these: 11 strains, peptides 1-64 μmol l^-1. The source says: We synthesized 12 sequences selected for their ease of synthesis and low aggregation potential: five from AT, four from NE and three from NG. We excluded the ND group because its peptides were challenging to synthesize and solubilize. We determined their minimum inhibitory concentrations (MICs) against 11 clinically relevant strains, including the ESKAPEE pathogens. […] Further investigation is needed to confirm this hypothesis.
Fig. 2 Antimicrobial activity and secondary structure of computationally designed peptides. a, Structure prediction of the synthesized peptides. b, Heatmap of the antimicrobial activities of the peptides against 11 clinically relevant pathogens, including four strains resistant to conventional antibiotics. Briefly, 10^6 bacterial cells and serially diluted peptides (1-64 μmol l^−1) were incubated at 37 °C. One day after treatment, the optical density at 600 nm was measured in a microplate reader to evaluate bacterial growth in the presence of the peptides. MIC values in the heatmap are the mode of the replicates in each condition. c–f, Ternary plots showing the percentage of secondary structure for each peptide (at 50 μmol l^−1) in four different solvents: water (c), 60% TFE in water (d), 10 mmol l^−1 SDS in water (e) and 50% methanol (MeOH) in water (f). Secondary structure fractions were calculated using the BeStSel server. […]

The next data set has as its system HEK293T cells. Kind of data set: Cytotoxicity, MTT assay. The class given is cell-based, human. The following applies: 24 h. As to the method: Fig. 3 Mechanism of action and cytotoxic activity of designed peptides. a, To assess whether the peptides act on bacterial membranes, all active peptides against A. baumannii American Type Culture Collection (ATCC) 19606 were subjected to outer-membrane permeabilization, and peptides active against A. baumannii ATCC 19606 and vancomycin-resistant E. faecalis ATCC 700802 were tested in cytoplasmic-membrane depolarization assays. b, The fluorescent probe NPN was used to assess membrane permeabilization induced by the tested peptides. c,d, The fluorescent probe DiSC3-5 was used to evaluate membrane depolarization caused by the designed peptides in A. baumannii ATCC 19606 (c) and vancomycin-resistant E. faecalis ATCC 700802 (d). […] All experiments were performed in three independent replicates. Panel a created with BioRender.com. Source data TEXT PRINTED IN THE PICTURE: (e) AT1: CC50 (μmol l^-1), HEK293T cells: 2,758 | (e) AT2: CC50 (μmol l^-1), HEK293T cells: 2 × 10^37 | (e) AT3: CC50 (μmol l^-1), HEK293T cells: 269 | (e) AT4: CC50 (μmol l^-1), HEK293T cells: 3,015 | (e) AT5: CC50 (μmol l^-1), HEK293T cells: 6 × 10^41 | (e) NE1: CC50 (μmol l^-1), HEK293T cells: 6 × 10^33 | (e) NE2: CC50 (μmol l^-1), HEK293T cells: 507 | (e) NE3: CC50 (μmol l^-1), HEK293T cells: 655 | (e) NE4: CC50 (μmol l^-1), HEK293T cells: 2 × 10^32 | (e) NG1: CC50 (μmol l^-1), HEK293T cells: 351 | (e) NG2: CC50 (μmol l^-1), HEK293T cells: 1 × 10^35 | (e) NG3: CC50 (μmol l^-1), HEK293T cells: 2 × 10^46 DOUBTS OF THE COPYIST ABOUT THIS PICTURE: AT2, CC50: small exponent, 37 or 57 / AT5, CC50: small exponent, 41 uncertain / NE1, CC50: small exponent, 33 or 38 / NE4, CC50: small exponent, 32 or 52 / NG2, CC50: small exponent, 35 or 36 / NG3, CC50: small exponent, 46 or 48 […]
HEK293T cells were obtained from the ATCC (CRL-3216). The cells were cultured in high-glucose DMEM supplemented with 1% penicillin and streptomycin (antibiotics) and 10% fetal bovine serum and grown at 37 °C in a humidified atmosphere containing 5% CO2.
One day before the experiment, an aliquot of 100 μl of the cells at 50,000 cells ml^−1 was seeded into each well of the cell-treated 96-well plates used in the experiment (that is, 5,000 cells per well)[45]. The attached HEK293T cells were then exposed to increasing concentrations of the peptides (4–64 μmol l^−1) for 24 h. After the incubation period, we performed the (3-(4,5-dimethylthiazol-2-yl)-2,5-diphenyltetrazolium bromide) tetrazolium reduction assay (MTT assay)[45]. […] The resulting salts were then resuspended in hydrochloric acid (0.04 mol l^−1) in anhydrous isopropanol and quantified by spectrophotometric measurements of absorbance at 570 nm. […]
Background: Tetrazolium assays rely on reduction of a dye to a coloured formazan, in cell work by metabolically active cells.

≈ marks a conversion by molar mass, not a printed value. Where no end group is shown, it is not given here.

`C[C@H]1COc2c(N3CCN(C)CC3)c(F)cc3c(=O)c(C(=O)O)cn1c23` [Levofloxacin, reference compound]: the “mouse weight (day 0 = 100)” value in data set [1] turned out to be 105.
`CC[C@H](C)[C@H](NC(=O)[C@H](CS)NC(=O)[C@H](CC(C)C)NC(=O)[C@H](Cc1c[nH]c2ccccc12)NC(=O)[C@H](C)NC(=O)[C@H](CCSC)NC(=O)[C@H](C)NC(=O)[C@H](Cc1c[nH]cn1)NC(=O)[C@@H]1CCCN1)C(=O)N[C@@H](CCCNC(=N)N)C(=O)N[C@@H](Cc1ccccc1)C(=O)N[C@@H](Cc1c[nH]cn1)C(=O)O` [NE1]: the values for the minimal inhibitory concentration (MIC) (against A. baumannii ATCC 19606 [2]; in data set [3]; in data set [4]) were 32 µM (≈ 47.4 µg/mL), 8 µM (≈ 11.9 µg/mL) and 16 µM (≈ 23.7 µg/mL), respectively. The cytoplasmic-membrane depolarization entry in the data set on A. baumannii ATCC 19606 [5] is “particularly effective”.
FKLCFVLHFVAL [NE4] displayed an MIC in data set [3] of 8 µM.
With HWHAILIHFHFA [AT1], the “MIC against at least one strain / activity in the panel” value in data set [6] is “inactive”. The “CC50, cytotoxic concentration leading to 50% cell lysis” value (“CC50 … to 50% cell lysis” for short) in the data set with HEK293T cells is 2758 µM.
Turning to HWHLILHFHACH [NG2], the minimal inhibitory concentration (MIC) in data set [3] and in data set [4] was 64 µM in each case.
Regarding HWHNKVLHWHIQ [AT3], in data set [6], the “MIC against at least one strain / activity in the panel” value is “inactive”. Also, the “CC50 … to 50% cell lysis” value in the data set on HEK293T cells came out at 268.9 µM.
For the compound IWHAAVLHFAIS [AT5], the MIC was found to be 64 µM in data set [3] and 32 µM in data set [4].
For the compound WHFHVWIHCIAF [NE3], the results for the MIC in data set [3] and in data set [4] were 16 µM and 32 µM, respectively. The “CC50 … to 50% cell lysis” value in the data set on HEK293T cells is 655.4 µM.

Usually MIC stands for the lowest concentration found to suppress growth. Read a high MIC as a need for much substance.

The values above are taken from article PMC12552119, “Tailored structured peptide design with a key-cutting machine approach” (Nature Machine Intelligence, 2025).
